In patent US7488476B2, “B-cell epitope peptides of HSP 65, DNA encoding said peptides, antibodies directed against said peptides and the different uses thereof in the treatment of inflammatory and autoimmune diseases” (priority 1998, dated 2009):

Key:
rat immunoglobulins [1] = assay: ELISA: antibodies of rat sera to mammalian HSP 60 and its peptides; type: binding
Method: (§1) ELISA: Flat-bottomed 96 well plates (Corning) were coated with mammalian HSP 60 or Mycobacterial HSP 65 (10 μg/ml) in carbonate buffer pH 9.6 overnight at 4° C.
After extensive washing with PBS-Tween 0.05% plates were incubated with blocking buffer containing 1% BSA (Sigma) for 60 min. at RT.
(§2) HSP peptides were attached to plates pre-treated with glutaraldehyde according to Kasprzyk et al.. Shortly, plates were coated with 100 μl/well of 5% w/v of glutaraldehyde in PBS for 1 hour at room temp. Plates were washed thoroughly with PBS and peptides (1 μg/100 μl) were added to each well, incubated overnight at 4° C. Plates were shaken dry and blocked with BSA 1% in PBS.
(§3) Plates coated with either HSP or peptides were washed again and incubated with rat sera diluted 1:100 with PBS-Tween 0.01% for 90 min. at room temp. After re-washing the plates were incubated with Goat anti rat IgG or IgM conjugated to alkaline-phosphatase for 60 min. at room temp. […] Optical density was measured photometrically at 405 nm.
Previous studies have shown that certain bacterial HSP peptides may trigger self HSP reactive T-cells with disease suppressive regulatory potential. To analyze the anti self-HSP antibody repertoire of these rats, the reactivity of Ig's from naive and post AA Lewis rats as well as from naive BN rats to whole mammalian HSP 60 was tested by ELISA.
(§4) Immunoglobulins from naive Lewis and BN rats and post-AA Lewis rats were tested for binding to 38 synthetic 20-mer peptides of the mammalian HSP 60 by Dot-Blot. […] Quantitative analysis of this binding as well as the binding of immunoglobulins from four and nine month old Lewis rats confirmed the dot blot findings (Table 3).

rat immunoglobulins [2] = assay: Dot-Blot of rat immunoglobulins with synthetic HSP peptides; type: binding
Method: Dot Blots assay: Antigens were dissolved in PBS and samples of 1 μg were adsorbed on Nitrocellulose paper. The paper was air-dried and incubated with BSA 1% in PBS for 20 min. to block non-specific binding. The samples were then washed in PBS-Tween 0.05% and incubated with rat sera diluted 1:100 in BSA-PBS, for 90 min. at room temp. Samples were washed and incubated with goat anti rat antibody conjugated to alkaline phosphatase diluted 1:1000 in BSA-PBS for 90 min. at RT. After re-washing the color reaction was developed by adding a mixture of BCIP-NBT (Sigma-Fast, Sigma) to the […] for 15 min. The reaction was stopped by the addition of tap water.
To define the epitopes recognized by the anti bacterial HSP antibodies, the inventors tested by Dot-Blot the interaction of immunoglobulins from naive young BN rats and post AA Lewis rats with 90 16-mer synthetic peptides of the Mycobacterial 65 KD HSP. Immunoglobulins from naive young Lewis rats served as control.
as §4

rat immunoglobulins [3] = assay: ELISA: antibodies of rat sera to Mycobacterial HSP 65 and its peptides; type: binding
Lewis rats [4] = assay: Anti HSP antibodies in Lewis rats immunized with HSP peptides (ELISA); type: in vivo, rat; conditions: 100 μg peptide in PBS, 3 times IP; for Anti HSP Antibodies in Immunized Lewis Rats, Antigen 6: antigen peptide 6; for Anti HSP Antibodies in Immunized Lewis Rats, Antigen 7: antigen peptide 7
Method: as §1, §2, §3
Modulation of AA by mycobacterial and mammalian HSP peltides: HSP 65 derived peptides were tested for their ability to modulate the appearance or severity of AA in Lewis rats. Rats were immunized with 100 μg of each peptide in PBS, three weeks (3W), 2W and 1W before induction of AA by MT. Control rats received PBS. Rats were bled for testing antibody presence before injection of MT and 30 days post MT injection.
To test whether active immunization with bacterial or mammalian HSP peptides that are recognized by protective immunoglobulins can induce protection against AA, Lewis rats were immunized with the mycobacterial peptides 6, 7, 21, 31, 36, 45, 84, that bound antibodies from resistant Lewis rats (“protective” peptides), with some non-reactive mycobacterial HSP 65 peptides: peptide 26 (residues 151-166), 28 (residues 163-178) or peptide 70 (residues 415-430), and with the mammalian peptide 5.
Rats were injected 3 times intraperitoneally (IP), with one week intervals between injections before induction of AA with MT.

Lewis rats [5] = assay: Modulation of Adjuvant Arthritis by pre-immunization with HSP peptides; type: in vivo, rat; conditions: 3 IP injections at one week intervals before AA induction with MT, FIG. 4
[6] = BN and post-AA Lewis rats, not naive Lewis rats
[7] = all of the rats immunoglobulins tested

Substance	Antibodies to Mammalian HSP 60 Peptides (rat immunoglobulins [1]; strain BN-6w)	Antibodies to Mammalian HSP 60 Peptides (rat immunoglobulins [1]; strain Lew-4m)	Antibodies to Mammalian HSP 60 Peptides (rat immunoglobulins [1]; strain Lew-6w)	Antibodies to Mammalian HSP 60 Peptides (rat immunoglobulins [1]; strain Lew-9m)	Antibodies to Mammalian HSP 60 Peptides (rat immunoglobulins [1]; strain Lew-Post AA)	reaction with immunoglobulins in Dot-Blot (rat immunoglobulins [2]; [6])	Antibodies to Mycobacterial HSP 65 Peptides (rat immunoglobulins [3]; strain BN-6w)	Antibodies to Mycobacterial HSP 65 Peptides (rat immunoglobulins [3]; strain Lew-4m)	Antibodies to Mycobacterial HSP 65 Peptides (rat immunoglobulins [3]; strain Lew-6w)	Antibodies to Mycobacterial HSP 65 Peptides (rat immunoglobulins [3]; strain Lew-9m)	Antibodies to Mycobacterial HSP 65 Peptides (rat immunoglobulins [3]; strain Lew-Post AA)	reaction with immunoglobulins in Dot-Blot (rat immunoglobulins [2]; [7])	Anti HSP Antibodies in Immunized Lewis Rats, Antigen M5 (Lewis rats [4])	Anti HSP Antibodies in Immunized Lewis Rats, Antigen MT-HSP 65 (Lewis rats [4])	Anti HSP Antibodies in Immunized Lewis Rats, Antigen 6 (Lewis rats [4])	Anti HSP Antibodies in Immunized Lewis Rats, Antigen 7 (Lewis rats [4])	AA disease severity after pre-immunization (Lewis rats [5])	reaction with immunoglobulins in Dot-Blot (rat immunoglobulins [2]; Lewis rats immunized with CFA)
M 30: 20-mer synthetic peptide of the mammalian HSP 60, residues 436-455 (IVLGGGCALLRCIPALDSLK)	+ (0.16-0.45 = +)	− (<O. 15 = −)	− (<O. 15 = −)	++ (0.46-0.75 = ++)	++ (0.46-0.75 = ++)	reacted												
31: 16-mer synthetic peptide of Mycobacterial HSP 65, residues 181-196, SEQ ID #11 [Peptide 31]							+ (0.16-0.45 = +)	− (<O. 15 = −)	− (<O. 15 = −)	++ (0.46-0.75 = ++)	++ (0.46-0.75 = ++)							
HSP 65: Recombinant HSP 65 of Mycobacterium Tuberculosis							+++ (>0.75 = +++)	− (<O. 15 = −)	− (<O. 15 = −)	+ (0.16-0.45 = +)	++ (0.46-0.75 = ++)							
63: 16-mer synthetic peptide of Mycobacterial HSP 65, residues 373-388, SEQ ID #16 [Peptide 63]							+ (0.16-0.45 = +)	+ (0.16-0.45 = +)	+ (0.16-0.45 = +)	+++ (>0.75 = +++)	++ (0.46-0.75 = ++)	reacted						
VVLEKKWGAPTITNDG [Peptide 7]							+ (0.16-0.45 = +)	− (<O. 15 = −)	− (<O. 15 = −)	+ (0.16-0.45 = +)	+ (0.16-0.45 = +)		− (<O. 15 = −)	+ (0.16-0.45 = +)	+ (0.16-0.45 = +)	− (<O. 15 = −)	significant suppression of disease severity	
36: 16-mer synthetic peptide of Mycobacterial HSP 65, residues 211-226, SEQ ID #12 [Peptide 36]							++ (0.46-0.75 = ++)	+ (0.16-0.45 = +)	− (<O. 15 = −)	+ (0.16-0.45 = +)	+++ (>0.75 = +++)							
59: 16-mer synthetic peptide of Mycobacterial HSP 65, residues 349-364, SEQ ID #15 [Peptide 59]							+ (0.16-0.45 = +)	− (<O. 15 = −)	− (<O. 15 = −)	− (<O. 15 = −)	+++ (>0.75 = +++)							
TVIIEQSWGSPKVTKDGVTV (listed as Rattus norvegicus) [Peptide R5, mammalian HSP 60 peptide, residues 61-80]	+ (0.16-0.45 = +)	− (<O. 15 = −)	− (<O. 15 = −)	++ (0.46-0.75 = ++)	+++ (>0.75 = +++)	reacted							− (<O. 15 = −)	+ (0.16-0.45 = +)	+ (0.16-0.45 = +)	− (<O. 15 = −)	significant suppression of disease severity	
84: 16-mer synthetic peptide of Mycobacterial HSP 65, residues 499-514, SEQ ID #17 [Peptide 84]							− (<O. 15 = −)	− (<O. 15 = −)	− (<O. 15 = −)	− (<O. 15 = −)	+ (0.16-0.45 = +)							reacted
21: 16-mer synthetic peptide of Mycobacterial HSP 65, residues 121-136, SEQ ID #10 [Peptide 21]							− (<O. 15 = −)	− (<O. 15 = −)	− (<O. 15 = −)	− (<O. 15 = −)	+ (0.16-0.45 = +)							reacted
45: 16-mer synthetic peptide of Mycobacterial HSP 65, residues 265-280, SEQ ID #14 [Peptide 45]							+ (0.16-0.45 = +)	+ (0.16-0.45 = +)	− (<O. 15 = −)	+ (0.16-0.45 = +)	++ (0.46-0.75 = ++)							
40: 16-mer synthetic peptide of Mycobacterial HSP 65, residues 236-251, SEQ ID #13 [Peptide 40]							++ (0.46-0.75 = ++)	+ (0.16-0.45 = +)	+ (0.16-0.45 = +)	++ (0.46-0.75 = ++)	++ (0.46-0.75 = ++)	reacted						
